Experimental data taken from patent publication US20090196910A1, “Sustained-Release Preparation of Statin Drugs” (PFICKER PHARMACEUTICALS LTD., priority 2005, published 2009).

Assays:
[1] = test system: carboxylate hydrolases in human blood; test: Hydrolysis of 4-esters of statin drugs by ester hydrolases in vitro; type: in vitro ADME; settings: pH 6.5-7.5
Description: As shown in the in vitro experiments, the esters of statin drugs formed at the 4-hydroxyl group can be transformed into statin drugs by many dominant human ester hydrolases at a pH of 6.5-7.5.

[2] = oral administration; cited from earlier work

transformation into the statin drug by ester hydrolases [1]	Compound	bio-availability [2]
readily transformed into simvastatin	CCC(C)(C)C(=O)O[C@H]1C[C@@H](C)C=C2C=C[C@H](C)C(CC[C@@H]3C[C@@H](OC(C)=O)CC(=O)O3)C21 (some centres unmarked) [4-acetate of simvastatin]	
	CC(C)c1c(C(=O)Nc2ccccc2)c(-c2ccccc2)c(-c2ccc(F)cc2)n1CC[C@@H](O)C[C@@H](O)CC(=O)O [atovastatin]	no more than 14%
